From ChEMBL document CHEMBL1201862, “PubChem BioAssay data set” (2004)
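Cells were grown in 96-well plates and exposed to each compound for 48 hours at five concentrations; endpoints were interpolated linearly between bracketing concentrations, or set to the highest concentration if not reached. Abbreviation: GI50, concentration required for 50% inhibition of growth.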 The source made the active and inactive calls. Cut-off read from the data, not from the text of the source: active = GI50 up to about 1.1 µM and inactive = higher.

Assays:
Assay in all cases: NCI anticancer screen, dose series, 48 h
786-0 = test system: 786-0
A549 = test system: A549
CCRF-CEM = test system: CCRF-CEM
HCT-116 = test system: HCT-116
K562 = test system: K562
M19-MEL = test system: M19-MEL
MOLT-4 = test system: MOLT-4
OVCAR-3 = test system: OVCAR-3
OVCAR-4 = test system: OVCAR-4
OVCAR-8 = test system: OVCAR-8
RPMI-8226 = test system: RPMI-8226
SF-539 = test system: SF-539
SK-MEL-28 = test system: SK-MEL-28
SK-OV-3 = test system: SK-OV-3
SW-620 = test system: SW-620
UACC-257 = test system: UACC-257
UO-31 = test system: UO-31
NCI-H226 = test system: NCI-H226
NCI/ADR-RES = test system: NCI/ADR-RES
RXF 393 = test system: RXF 393

Measured: GI50

COc1ccc(/C=C2\CCc3ccccc3C2=O)cc1OC
inactive: 786-0 34.5 µM | A549 38.2 µM | CCRF-CEM 24.8 µM | HCT-116 17.9 µM | K562 23.2 µM | M19-MEL 30.1 µM | MOLT-4 21.4 µM | OVCAR-3 33.6 µM | OVCAR-4 17.8 µM | OVCAR-8 32.1 µM | RPMI-8226 13.9 µM | SF-539 22.3 µM | SK-MEL-28 25.3 µM | SK-OV-3 18.7 µM | SW-620 28.4 µM | UACC-257 18.9 µM | UO-31 29.2 µM

Cc1ccc(S(=O)(=O)N/N=C/CN2C(=O)c3ccccc3C2=O)cc1
inactive: 786-0 > 100 µM | A549 > 100 µM | CCRF-CEM > 100 µM | HCT-116 > 100 µM | K562 > 100 µM | M19-MEL > 100 µM | MOLT-4 > 100 µM | NCI-H226 82.2 µM | OVCAR-4 > 100 µM | OVCAR-8 > 100 µM | RPMI-8226 > 100 µM | SF-539 > 100 µM | SW-620 > 100 µM | UACC-257 > 100 µM | UO-31 > 100 µM

O=C1NC(=O)C2C1C1C=C3c4ccccc4N(c4ccccc4)C32[C@H]2C(=O)NC(=O)[C@@H]12 (stereo not given in full)
inactive: 786-0 > 100 µM | A549 > 100 µM | CCRF-CEM > 100 µM | HCT-116 > 100 µM | K562 > 100 µM | M19-MEL > 100 µM | MOLT-4 > 100 µM | NCI-H226 > 100 µM | OVCAR-3 > 100 µM | OVCAR-4 > 100 µM | OVCAR-8 > 100 µM | RPMI-8226 > 100 µM | SF-539 > 100 µM | SK-MEL-28 > 100 µM | SK-OV-3 > 100 µM | SW-620 > 100 µM | UACC-257 > 100 µM | UO-31 > 100 µM

Cc1ccc(N2C(=O)/C(=C/c3ccc(N(CCC#N)CCC#N)cc3C)N=C2c2cc([N+](=O)[O-])ccc2Cl)cc1
inactive: 786-0 > 100 µM | A549 > 100 µM | CCRF-CEM > 100 µM | HCT-116 > 100 µM | K562 > 100 µM | M19-MEL > 100 µM | MOLT-4 91.2 µM | NCI-H226 > 100 µM | OVCAR-3 > 100 µM | OVCAR-4 > 100 µM | OVCAR-8 > 100 µM | RPMI-8226 > 100 µM | SF-539 > 100 µM | SK-MEL-28 > 100 µM | SK-OV-3 > 100 µM | SW-620 > 100 µM | UACC-257 > 100 µM | UO-31 > 100 µM

Cc1cc(S(=O)(=O)Nc2nc(Nc3ccccc3)n[nH]2)c(SCC(=O)O)cc1Cl
inactive: 786-0 > 100 µM | A549 > 100 µM | CCRF-CEM > 100 µM | HCT-116 > 100 µM | K562 > 100 µM | MOLT-4 > 100 µM | NCI-H226 > 100 µM | NCI/ADR-RES > 100 µM | OVCAR-3 > 100 µM | OVCAR-4 > 100 µM | OVCAR-8 > 100 µM | RPMI-8226 > 100 µM | RXF 393 > 100 µM | SF-539 > 100 µM | SK-MEL-28 > 100 µM | SK-OV-3 > 100 µM | SW-620 > 100 µM | UACC-257 > 100 µM | UO-31 > 100 µM

COC(=O)c1cc(C(=CCC[C@H]2CC[C@@]3(C)C(CCC4C3CC[C@@]3(C)C4CC[C@@H]3C(C)CCCC(C)C)C2)c2cc(Cl)c(OC(=O)c3ccccc3)c(C(=O)OC)c2)cc(Cl)c1OC(=O)c1ccccc1 (stereo not given in full)
inactive: 786-0 > 10 µM | A549 > 10 µM | CCRF-CEM > 10 µM | HCT-116 > 10 µM | K562 > 10 µM | MOLT-4 > 10 µM | NCI-H226 > 10 µM | NCI/ADR-RES > 10 µM | OVCAR-3 > 10 µM | OVCAR-4 > 10 µM | OVCAR-8 > 10 µM | RPMI-8226 > 10 µM | RXF 393 > 10 µM | SF-539 > 10 µM | SK-MEL-28 > 10 µM | SK-OV-3 > 10 µM | SW-620 > 10 µM | UACC-257 > 10 µM | UO-31 > 10 µM

CSc1nc2c(N)ncnc2n1C
inactive: 786-0 > 100 µM | A549 > 100 µM | CCRF-CEM > 100 µM | HCT-116 > 100 µM | K562 > 100 µM | MOLT-4 > 100 µM | NCI-H226 > 100 µM | NCI/ADR-RES > 100 µM | OVCAR-3 > 100 µM | OVCAR-4 > 100 µM | OVCAR-8 > 100 µM | RPMI-8226 > 100 µM | RXF 393 > 100 µM | SF-539 > 100 µM | SK-MEL-28 > 100 µM | SK-OV-3 > 100 µM | SW-620 > 100 µM | UACC-257 > 100 µM | UO-31 > 100 µM
